Experimental data: US11844801B2, “Oral compositions of MK2 pathway inhibitor for treatment of immune conditions” (priority 2020, dated 2023)
In brackets after ≈: the same amount, converted by molar mass. Entries after “also recorded” stand apart in the source; their conditions may differ. Like-named read-outs stand apart in the source and are kept apart here.

Tests used:
IL-1α = experiment: Human PBMC LPS stimulated IL-1α biosynthesis; format: cell-based; details: hPBMC, 100 ng/mL, 24 hr
IL-17A = IL-17A production in CD4+ cells cultured under TH17 skewing conditions; format: cell-based, human
Description: CD4+ cells were cultured for 3 days under TH17 skewing conditions (anti-CD3, anti-CD28, anti-IL-4, anti-IFNγ, rIL-6, rIL-23, rTGFβ). On day 3, cells were harvested, washed, re-plated, and treated with compound or DMSO only. […] After 18-20 hours, supernatants were collected and assayed for IL-17A levels using MSD.

IL-6 [1] = experiment: R848 stimulated IL-6 production in human whole blood; format: cell-based; details: R848, 0.5 ug/mL, 5 hr
Description: (§1) Human whole blood assays were performed as described above with the exceptions listed below. […] Compounds were serially diluted in 100% DMSO (Sigma-Aldrich, D2650) followed by a 10× dilution into RPMI (Gibco, 11875). After the one-hour incubation with the compounds or vehicle, 2 μL of R848 (InvivoGen, tlrl-r848) in RPMI (Gibco, 11875) was added for a final concentration of 0.5 μg/mL to each well except for the no stimulus wells. After five hours of incubation with R848, plasma was harvested and assayed for TNF-α, IL-1β, IL-6 and IL-8 using Meso Scale Discovery Technology V-plex human cytokine kits according to the kit protocol.

[2] = test system: TNF-α, IL-1β, IL-6, and IL-8; experiment: Phase 2a RA study: ex vivo LPS-stimulated cytokines in patient blood; parameters: species or system human; details: 50 mg BID, 12 weeks
IL-6 [3] = experiment: A549 IL-1β stimulated IL-6 assay; format: cell-based; details: Homo sapiens, A549 cells, 1 ng/mL, 18 hr
Description: A549 IL-1β stimulated IL-6 Assay—A549 cells (American Type Culture Collection, […]) were grown in Ham's F-12K (Kaighn's) (Gibco, 21127-022) with penicillin-streptomycin (10 U/mL) (Gibco, 15140-122) and 10% fetal bovine serum (Gibco, 26140-079). Cells were grown to 80% confluence then trypsinized to remove cells. Cells were plated in 96 well flat bottom plates in complete media and allowed to recover overnight. Cells were pretreated for one hour in the presence of serially diluted compound or vehicle (0.5% DMSO) (Sigma-Aldrich, D2650) then stimulated with IL-1β (1 ng/mL) (R&D Systems, 201-LB-005) for 18 hours. Culture media was then collected for determination of IL-6 levels using Meso Scale Technology.

TNF-α [4] = experiment: R848 stimulated TNF-α production in human whole blood; format: cell-based; details: R848, 0.5 ug/mL, 5 hr
Description: as §1

IL-1β = experiment: LPS stimulated IL-1β production in human whole blood; format: cell-based
Description: Compounds were serially diluted in 100% DMSO (Sigma-Aldrich, D2650) followed by a 50× dilution into DMEM/10% FBS (Gibco, 11965/26140). Vehicle consisted of DMSO at a final assay concentration of 0.1%. Pin tools (V&P Scientific, Inc., VP246) were placed in the wells and the plate was placed at 37° C. with 5% CO2, with gently shaking for five minutes, then pin tools were removed and saved. […] Pin tools were placed in the wells in the same orientation as the previous step and gently shook for five minutes at 37° C. with 5% CO2, then removed. […] The plasma was harvested and assayed for TNF-α, IL-1β, and IL-6 using Meso Scale Discovery Technology V-plex human cytokine kits according to the kit protocol. The kit plates were read using an MSD Sector S 6000 instrument. Calculations to establish cytokine calibration curves and to determine analyte concentrations in the samples were carried out using the MSD DISCOVERY WORKBENCH® analysis software.

[5] = test system: endogenous cytokines (TNF-α, IL-6, IL-8, MIP1β, IL-1RA); experiment: Phase 2a RA study: endogenous plasma cytokines; format: in vivo, human; details: 50 mg BID
Description: Pharmacodynamics. […] For the endogenous cytokine levels (e.g., TNF-α, IL-1β, IL-6, IL-8, IFNγ, IL-17, IL-18, IL-10, IL-1α, and IL-1RA), 1 mL of serum will be drawn at each identified time point. […] Samples were evaluated at trough drug levels through day 84 and the last point is near Cmax following the final dose on day 84. The horizontal line ( ? ) in FIG. 19A depicts TNF-α levels in blood from normal volunteer subjects that were evaluated in the same assay. […] The horizontal line ( ? ) in FIG. 19B represents IL-1RA levels in healthy subjects. […] Plasma levels of three proinflammatory cytokines (TNF-α (FIG. 20A), IL-6 (FIG. 20C), IL-8 (FIG. 20B)), from a 13-plex tested are shown in this Figure, along with the chemokine MIP1β (FIG. 20D). The data are expressed as median % change relative to pre-dosing for drug treated patients. […] The horizontal line ( ? ) describes cytokine/chemokine level in plasma from normal healthy volunteer subjects.

TNF-α [6] = experiment: IL-1β stimulated TNF-α production in human whole blood; format: cell-based
Description: Compounds were serially diluted in 100% DMSO (Sigma-Aldrich, D2650) followed by a 10× dilution into RPMI (Gibco, 11875). After the one-hour incubation with the compounds or vehicle, 2 μL of IL-1β (R&D, 201-LB-010) in RPMI (Gibco, 11875) was added for a final concentration of 0.5 μg/mL to each well except for the no stimulus wells. […]

TNF-α [7] = experiment: Porcine whole blood LPS stimulated TNF-α assay; format: cell-based; details: Sus scrofa, Pig Whole Blood, 10 µg/mL, 4 hr
Description: Porcine LPS stimulated TNF-α Assay—Porcine whole blood was collected into heparinized vacutainers then transferred into conical tubes and shipped overnight on wet ice. Porcine whole blood was aliquoted (160 μL/well) into round bottom 96 well tissue culture plates. Compounds were serially diluted in 100% DMSO (Sigma-Aldrich, D2650) followed by a 100× dilution into RPMI/10% FBS (Gibco, 11875/26140). The diluted compounds were then added to each plate in duplicate 20 μL aliquots for final concentrations ranging from 10 μM to 1 pM. DMSO final concentration was 0.1%. After a one-hour incubation at 37° C. with 5% CO2, 20 μL of LPS (Sigma-Aldrich, L2630), in RPMI/10% FBS (Gibco, 11875/26140) was added for a final concentration of 10 μg/mL to each well except for the no stimulus wells. After four hours of incubation with LPS, plasma was harvested by centrifugation at 1,800×g for five minutes. The plasmas were assayed for TNF-α levels using a porcine specific TNF-α Quantikine ELISA kit (R&D, PTA00) according to the kit protocol.

`Cc1cnc(-c2ccnc(C(C)(C)O)n2)cc1-n1c(C)cc(OCc2ncc(F)cc2F)c(Cl)c1=O` (single isomer, unassigned) [ATI-450, 3-chloro-4-((3,5-difluoropyridin-2-yl)methoxy)-2′-(2-(2-hydroxypropan-2-yl)pyrimidin-4-yl)-5′,6-dimethyl-2H-[1,4′-bipyridin]-2-one] was tested, and the IC50 (IL-1α) was 31.1 nM, the “IL-17 production in CD4+ cells” value (IL-17A) was “partially inhibits” and the IC50 (IL-6 [1]) was 79.2 ± 17.2 nM. The “ex vivo stimulated cytokines in RA patient blood” value [2] was “sustained inhibition of proinflammatory cytokines; also recorded: marked and durable inhibition”, the IC50 (IL-6 [3]) was 11.1 ± 7.6 nM and the IC50 (TNF-α [4]) was 34.8 ± 5 nM. The IC50 (IL-1β; Human Whole Blood, LPS, 100 ng/mL, 4 or 24 hr, read-out: IC50, IL-1β) was 6.1 nM, the IC50 (IL-1β; human whole blood, LPS 100 ng/mL, read-out: IC50, LPS-stimulated IL-1β) was 10 to 100 nM and the “median concentrations of endogenous TNF-α, IL-6, IL-8, and MIP1β” value ([5]; 12-week period) was “marked and sustained inhibition”. The “endogenous plasma IL-1RA” value ([5]; 12 weeks) was “not impacted by ATI-450”, the “endogenous plasma IL-6, IL-8, and MIP1β” value ([5]; 12 weeks) was “reduced at week 4 and this reduction was maintained through the 12 weeks” and the “endogenous plasma TNF-α” value ([5]; trough) was “rapidly reduced by 4 weeks of dosing”. It also gave an IC50 (TNF-α [6]; Human Whole Blood, IL-1β, 10 ng/mL, 5 hr) of 12.2 ± 4 nM, an IC80 (TNF-α [6]; human whole blood) of 0.031 ± 0.006 µg/mL (≈ 0.0603 µM) and an IC50 (TNF-α [7]) of 7.4 nM.
